This is an account of results in patent publication US11807609B2, “Deuterated compounds as immunomodulators” (CHEMOCENTRYX, INC., priority 2017, dated 2023).

Some results are limits rather than exact numbers.

The target in this test is T1, C5aR (Homo sapiens, UniProt P21730).
T1 construct: added to freshly-drawn human blood (EDTA as anticoagulant); endogenous in cells; host or cells: leukocytes in freshly drawn human whole blood (EDTA)
T1 sequence (P21730 1-350): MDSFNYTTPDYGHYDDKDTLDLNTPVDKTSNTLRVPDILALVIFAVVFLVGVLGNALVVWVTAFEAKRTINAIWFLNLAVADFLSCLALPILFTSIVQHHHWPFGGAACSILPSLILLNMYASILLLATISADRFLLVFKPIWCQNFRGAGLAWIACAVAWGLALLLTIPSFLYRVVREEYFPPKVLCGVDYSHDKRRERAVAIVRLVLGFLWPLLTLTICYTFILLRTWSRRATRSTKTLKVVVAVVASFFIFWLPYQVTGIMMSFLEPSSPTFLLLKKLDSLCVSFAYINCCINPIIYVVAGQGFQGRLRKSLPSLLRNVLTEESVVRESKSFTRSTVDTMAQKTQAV
The test can be described thus: C5a-induced chemotaxis (migration) assay in freshly-drawn human blood, ChemoTX plate, CyQUANT readout. Type of test: cell-based. Conditions: migration of cells from human whole blood (EDTA) toward recombinant hC5a, 37° C., 90-180 minutes; read-out: Mig IC50. On the procedure: A serial dilution of C5aR compound or an equivalent volume of DMSO was added to freshly-drawn human blood (EDTA as anticoagulant). Separately, recombinant hC5a was diluted with chemotaxis buffer, after which 29 μl of diluted chemokine was placed in the lower wells of a ChemoTX plate (Neuro Probe, Gaithersburg, MD). A 3-μm (pore size) polycarbonate membrane (Neuro Probe, Gaithersburg, MD) was placed onto the plate, and 20 μL of the blood/compound mixture was transferred onto each well of the membrane. The plates were incubated at 37° C. for 90-180 minutes, after which the polycarbonate membranes were removed and 5 μl of the DNA-intercalating agent CyQUANT (Invitrogen, Carlsbad, CA) was added to the lower wells. The amount of fluorescence, corresponding to the number of migrated cells, was measured using a Spectrafluor Plus plate reader (TECAN, San Jose, CA).
Compounds in Table 1 were prepared by methods as described in the Examples, and evaluated according to the assay above. The IC50 of the compounds are presented in Table 1 as follows: +++, IC50≤100 nM .
For `[2H]c1cc(C)c(C(=O)N2CCC[C@H](C(=O)Nc3ccc(C([2H])([2H])O)c(C(F)(F)F)c3)[C@@H]2c2ccc(NC3CCCC3)cc2)c(F)c1` [Compound 1.001], the IC50 (as a rule, the midpoint of a concentration-inhibition curve) was no more than 0.1 µM.
The value for `[2H]c1cc([C@H]2[C@@H](C(=O)Nc3ccc(C([2H])([2H])O)c(C(F)(F)F)c3)CCCN2C(=O)c2c(C)cccc2F)ccc1NC1CCCC1` [Compound 1.002] was no more than 0.1 µM.
As to `[2H]C([2H])([2H])c1cccc(F)c1C(=O)N1CCC[C@H](C(=O)Nc2ccc(C([2H])([2H])O)c(C(F)(F)F)c2)[C@@H]1c1ccc(NC2CCCC2)cc1` [Compound 1.003, (2R,3S)-2-(4-(cyclopentylamino)phenyl)-1-(2-fluoro-6-(methyl-d3)benzoyl)-N-(4-(hydroxymethyl-d2)-3-(trifluoromethyl)phenyl)piperidine-3-carboxamide], the IC50 was no more than 0.1 µM.
The value for `[2H]c1cc([C@H]2[C@@H](C(=O)Nc3ccc(C)c(C(F)(F)F)c3)CCCN2C(=O)c2c(F)cccc2C([2H])([2H])[2H])ccc1NC1CCCC1` [Compound 1.004] was no more than 0.1 µM; that for `[2H]C1([2H])CC(Nc2ccc([C@H]3[C@@H](C(=O)Nc4ccc(C)c(C(F)(F)F)c4)CCCN3C(=O)c3c(C)cccc3F)cc2)CC1([2H])[2H]` [Compound 1.005] was no more than 0.1 µM; that for `[2H]C([2H])(O)c1ccc(NC(=O)[C@H]2CCCN(C(=O)c3c(C)cccc3F)[C@H]2c2ccc(NC3CCCC3)cc2)cc1C(F)(F)F` [Compound 1.006, (2R,3S)-2-(4-(cyclopentylamino)phenyl)-1-(2-fluoro-6-methylbenzoyl)-N-(4-(hydroxymethyl-d2)-3-(trifluoromethyl)phenyl)-piperidine-3-carboxamide] was no more than 0.1 µM.
On to `[2H]c1cc([C@H]2[C@@H](C(=O)Nc3c([2H])cc(C)c(C(F)(F)F)c3[2H])CCCN2C(=O)c2c(C)cccc2F)ccc1NC1CCCC1` [Compound 1.007], for which the IC50 was no more than 0.1 µM.
Under `[2H]c1cc([C@H]2[C@@H](C(=O)Nc3ccc(C)c(C(F)(F)F)c3)CCCN2C(=O)c2c(C)cccc2F)ccc1NC1CCCC1` [Compound 1.008] stands no more than 0.1 µM.
Regarding `[2H]C1(Nc2ccc([C@H]3[C@@H](C(=O)Nc4ccc(C)c(C(F)(F)F)c4)CCCN3C(=O)c3c(C)cccc3F)cc2)CCCC1` [Compound 1.009], the concentration for half-maximal inhibition (IC50) is no more than 0.1 µM.
With `[2H]C([2H])([2H])c1ccc(NC(=O)[C@H]2CCCN(C(=O)c3c(F)cccc3C([2H])([2H])[2H])[C@H]2c2ccc(NC3CCCC3)cc2)cc1C(F)(F)F` [Compound 1.010, (2R,3S)-2-(4-(cyclopentylamino)phenyl)-1-(2-fluoro-6-(methyl-d3)benzoyl)-N-(4-(methyl-d3)-3-(trifluoromethyl)phenyl)piperidine-3-carboxamide], the half-inhibitory concentration (IC50) was no more than 0.1 µM.
On to `[2H]C([2H])([2H])c1cccc(F)c1C(=O)N1CCC[C@H](C(=O)Nc2ccc(CO)c(C(F)(F)F)c2)[C@@H]1c1ccc(NC2CCCC2)cc1` [Compound 1.011], for which the IC50 is no more than 0.1 µM.
With `[2H]c1cc(C)c(C(F)(F)F)c([2H])c1NC(=O)[C@H]1CCCN(C(=O)c2c(F)cccc2C([2H])([2H])[2H])[C@H]1c1ccc(NC2CCCC2)cc1` [Compound 1.012], the IC50 is no more than 0.1 µM.
For the compound `[2H]c1cc(C)c(C(=O)N2CCC[C@H](C(=O)Nc3ccc(C)c(C(F)(F)F)c3)[C@@H]2c2ccc(NC3CC([2H])([2H])C([2H])([2H])C3)cc2)c(F)c1` [Compound 1.013], the IC50 was no more than 0.1 µM.
Under `[2H]C([2H])([2H])c1cccc(F)c1C(=O)N1CCC[C@H](C(=O)Nc2ccc(C)c(C(F)(F)F)c2)[C@@H]1c1ccc(NC2CC([2H])([2H])C([2H])([2H])C2)cc1` [Compound 1.014, (2R,3S)-2-(4-((cyclopentyl-3,3,4,4-d4)amino)phenyl)-1-(2-fluoro-6-(methyl-d3)benzoyl)-N-(4-methyl-3-(trifluoromethyl)phenyl)piperidine-3-carboxamide] stands no more than 0.1 µM.
For the compound `[2H][C@]1(C(=O)Nc2ccc(C)c(C(F)(F)F)c2)CCCN(C(=O)c2c(C)cccc2F)[C@H]1c1ccc(NC2CCCC2)cc1` [Compound 1.015], the IC50 is no more than 0.1 µM.
Take `[2H]c1cc(C)c(C(=O)N2CCC[C@H](C(=O)Nc3ccc(C)c(C(F)(F)F)c3)[C@@H]2c2ccc(NC3CCCC3)cc2)c(F)c1` [Compound 1.016]: the IC50 was no more than 0.1 µM.
With `[2H]C([2H])([2H])c1cccc(F)c1C(=O)N1CCC[C@H](C(=O)Nc2ccc(C)c(C(F)(F)F)c2)[C@@H]1c1ccc(NC2CCCC2)cc1` [Compound 1.017], the IC50 is no more than 0.1 µM.
Under `[2H]c1cc(C)c(C(F)(F)F)c([2H])c1NC(=O)[C@H]1CCCN(C(=O)c2c(C)cccc2F)[C@H]1c1ccc(NC2CCCC2)cc1` [Compound 1.018, (2R,3S)-2-(4-(cyclopentylamino)phenyl)-1-(2-fluoro-6-methylbenzoyl)-N-(4-methyl-3-(trifluoromethyl)phenyl-2,6-d3)piperidine-3-carboxamide] stands no more than 0.1 µM.
As to `[2H]C1([2H])C([2H])([2H])C([2H])([2H])C([2H])(Nc2ccc([C@H]3[C@@H](C(=O)Nc4ccc(C)c(C(F)(F)F)c4)CCCN3C(=O)c3c(C)cccc3F)cc2)C1([2H])[2H]` [Compound 1.019, (2R,3S)-2-(4-((cyclopentyl-d9)amino)phenyl)-1-(2-fluoro-6-methylbenzoyl)-N-(4-methyl-3-(trifluoromethyl)phenyl)piperidine-3-carboxamide], the IC50 is no more than 0.1 µM.
Under `[2H]c1cc(C)c(C(F)(F)F)cc1NC(=O)[C@H]1CCCN(C(=O)c2c(C)cccc2F)[C@H]1c1ccc(NC2CCCC2)cc1` [Compound 1.020] stands no more than 0.1 µM.
`[2H]C([2H])([2H])c1ccc(NC(=O)[C@H]2CCCN(C(=O)c3c(C)cccc3F)[C@H]2c2ccc(NC3CCCC3)cc2)cc1C(F)(F)F` [Compound 1.021, (2R,3S)-2-(4-(cyclopentylamino)phenyl)-1-(2-fluoro-6-methylbenzoyl)-N-(4-(methyl-d3)-3-(trifluoromethyl)phenyl)piperidine-3-carboxamide]: the IC50 is no more than 0.1 µM.
